The values that follow come from paper PMC4493701, “Quantitative and qualitative analysis of the novel antitumor 1,3,4-oxadiazole derivative (GLB) and its metabolites using HPLC-UV and UPLC-QTOF-MS” (Scientific Reports, 2015).

One data set has as its system thymidine phosphorylase. The settings on record: cited from earlier work.
The nature of data set [1]: Stability of GLB in rat plasma QC samples under storage and processing conditions (HPLC-UV). The class given is in vitro ADME. The settings on record: for Measured concentration / Accuracy (RE, %): rat plasma. As for the experimental part:
The stability of GLB in rat plasma was determined by analyzing QC samples that was stored in different conditions, including: 1) room-temperature, 2) light irradiation for 24 hours, 3) post-preparation (the extracted samples stored at 4 °C for 48 hours and one week), 4) three cycles of freeze and thaw (freezing at −20 °C for 24 hours and thawing at room temperature), 5) long-term stored in −20 °C for up to 2 weeks, 1 month and 3 months, respectively. All the QC samples for stability assessment were analyzed in triplicate.
Under manifold storage and processing conditions, the stability of GLB in rat plasma was evaluated by analyzing three replicates for QC samples at 0.025, 0.5 and 4 μg/mL.
Calibration standard solutions were prepared by adding 25 μL of working standard solutions of GLB and IS into 375 μL blank rat plasma to achieve final concentrations of GLB of 0.01, 0.025, 0.05, 0.1, 0.5, 1, 4 and 8 μg/mL, and IS concentration of 1 μg/mL, respectively. QC samples were prepared in the same way using the low, medium and high concentrations of 0.025, 0.5 and 4 μg/mL, respectively.

For data set [2], the system named is human carcinoma cell lines including uterine cervix cancer cells, pulmonary adenocarcinoma cells, and prostate cancer cells (PC-3M). Also on record: method as in earlier work. The conditions noted are these: multiple human carcinoma cell lines; cited from earlier work.
Data set [3] is described as follows: Identification of GLB metabolites in rat plasma by UPLC-ESI-QTOF-MS. The class given is in vivo. The conditions noted are these: rat plasma after oral GLB 100 mg/kg; tentative, no metabolite standards. An excerpt: Because of two unknown chromatographic peaks were detected by HPLC after oral dose GLB in rat plasma, their structures were further identified and the metabolic pathways were investigated using UPLC-MS method. […] Based on the chromatographic retention times and mass spectral patterns (m/z and mass errors) between the parent drug and their product ions, the structures of metabolites of GLB could be estimated, in spite of lacking standards of metabolites. […] Metabolites M1 and M2 were detected at shorter retention times (2.56 and 2.86 min, respectively), and heavier molecular ions as m/z 529 (497 + 32 Da) and 513 (497 + 16 Da), respectively.
Furthermore, under the tandem mass spectrometry positive scan mode condition, the parent compound GLB was detected as protonated molecular ions at m/z 499 ([M+H]+) and sodium adduct (520, [M+Na]+), and fragment ion m/z 441, respectively (Fig. 3C). The metabolite M1 was detected as protonated molecular ions at m/z 529 ([M+H]+) and sodium adduct (m/z […], [M+Na]+), and fragment ions m/z 457, 449, 435 and 401, respectively. […]
The structure identifications of GLB and its metabolites were analyzed using a validated ultra-performance liquid chromatography- electrospray ionization-quadrupole-time-of-flight mass spectrometry (UPLC-ESI-QTOF-MS) method, as described in previous publications. […]

Setting [4] is: Freezing storage −20 °C for 1 month, actual concentration 0.025 μg/mL.
[5] abbreviates: Freezing storage −20 °C for 2 weeks, actual concentration 0.025 μg/mL.
Setting [6] is: Freezing storage −20 °C for 2 weeks, actual concentration 0.5 μg/mL.
The mark [7] stands for this setting: Freezing storage −20 °C for 2 weeks, actual concentration 4 μg/mL.
Setting [8] is: Light and room temperature for 24 hours, actual concentration 0.025 μg/mL.
Where [9] appears, read: Light and room temperature for 24 hours, actual concentration 0.5 μg/mL.
[10] abbreviates: Light and room temperature for 24 hours, actual concentration 4 μg/mL.
Where [11] appears, read: Post-preparative, 4 °C for 1 week, actual concentration 0.025 μg/mL.
Setting [12] is: Post-preparative, 4 °C for 1 week, actual concentration 0.5 μg/mL.
[13] abbreviates: Post-preparative, 4 °C for 1 week, actual concentration 4 μg/mL.
[14] abbreviates: Post-preparative, 4 °C for 48 hours, actual concentration 0.025 μg/mL.
[15] abbreviates: Post-preparative, 4 °C for 48 hours, actual concentration 0.5 μg/mL.
Setting [16] is: Post-preparative, 4 °C for 48 hours, actual concentration 4 μg/mL.

Structures are written as SMILES.

`CC(=O)N1N=C(c2ccc(Br)cc2)OC12C1OC(C)(C)OC1COC21COC(C)(C)O1` (centres unmarked) [GLB, Fructose-based 3-acetyl-2,3-dihydro-1,3,4-oxadiazole]: the Thymidine phosphorylase inhibition entry in the data set on thymidine phosphorylase is “thymidine phosphorylase inhibitor”. The “Stability in rat plasma” value in data set [1] (24 hours, 48 hours and 1 week at 4 °C, 2 weeks, 1 month and 3 months at −20 °C, three freeze-thaw cycles) is given as “stable”. Further, the Measured concentration in data set [1] (Freeze-thawing 3 cycles (−20 °C), actual concentration 0.025 μg/mL) came to 0.025 ± 0.001 µg/mL; in data set [1] (Freeze-thawing 3 cycles (−20 °C), actual concentration 0.5 μg/mL), 0.467 ± 0.036 µg/mL; in data set [1] (Freeze-thawing 3 cycles (−20 °C), actual concentration 4 μg/mL), 3.732 ± 0.227 µg/mL; in data set [1] (setting [4]), 0.027 ± 0.002 µg/mL; in data set [1] (Freezing storage −20 °C for 1 month, actual concentration 0.5 μg/mL), 0.490 ± 0.015 µg/mL; in data set [1] (Freezing storage −20 °C for 1 month, actual concentration 4 μg/mL), 4.097 ± 0.213 µg/mL. For the same compound, the Measured concentration in data set [1] (setting [5]) came out at 0.027 ± 0.001 µg/mL; in data set [1] (setting [6]) it was 0.535 ± 0.009 µg/mL; in data set [1] (setting [7]) it was 4.393 ± 0.090 µg/mL; in data set [1] (Freezing storage −20 °C for 3 months, actual concentration 0.025 μg/mL), 0.023 ± 0.002 µg/mL; in data set [1] (Freezing storage −20 °C for 3 months, actual concentration 0.5 μg/mL) it was 0.487 ± 0.003 µg/mL; in data set [1] (Freezing storage −20 °C for 3 months, actual concentration 4 μg/mL), 3.918 ± 0.063 µg/mL. Further, the Measured concentration in data set [1] (setting [8]) turned out to be 0.026 ± 0.002 µg/mL; in data set [1] (setting [9]), 0.486 ± 0.027 µg/mL; in data set [1] (setting [10]), 3.922 ± 0.055 µg/mL; in data set [1] (setting [11]), 0.026 ± 0.001 µg/mL; in data set [1] (setting [12]), 0.428 ± 0.010 µg/mL; in data set [1] (setting [13]), 3.668 ± 0.219 µg/mL. The values for the Measured concentration in data set [1] (setting [14]), in data set [1] (setting [15]) and in data set [1] (setting [16]) were 0.026 ± 0.001 µg/mL, 0.528 ± 0.007 µg/mL and 4.233 ± 0.196 µg/mL, respectively. Also, the “Accuracy (RE, %)” value in data set [1] (setting [4]) was 8.66%; in data set [1] (setting [5]), 8.17%; in data set [1] (setting [6]), 7.10%; in data set [1] (setting [7]) it was 9.84%; in data set [1] (setting [8]), 4.17%; in data set [1] (setting [9]), −2.79%. Further, the “Accuracy (RE, %)” value in data set [1] (setting [10]) is −1.94%; in data set [1] (setting [11]), 3.83%; in data set [1] (setting [12]) it was −14.4%; in data set [1] (setting [13]) it was −8.30%; in data set [1] (setting [14]), 5.31%; in data set [1] (setting [15]), 5.62%. In addition, the “Accuracy (RE, %)” value in data set [1] (setting [16]) was 5.83%. Moreover, the Effect on proliferation entry in data set [2] is “inhibited proliferation”.
As to `CC(=O)N1N=C(c2ccc(Br)cc2)OC1(C1OC(C)(C)OC1C(=O)O)C1(O)COC(C)(C)O1` (centres unmarked) [M1], the “Identification (metabolic modification of GLB)” value in data set [3] was “Di-hydroxylation”.
